Assay results taken from publication PMC7127101 (Bioorganic & Medicinal Chemistry Letters, 2010).

Molecular target: SARS-CoV 3CL^pro (Severe acute respiratory syndrome coronavirus, UniProt P0C6X7)
Format: biochemical

| Structure (SMILES) | Inhibition type | V max [intensity min^−1] | fold smaller IC50 value compared with that of reference compounds [fold] |
| --- | --- | --- | --- |
| CC1=C(O)C(=O)C=C2C1=CC=C1[C@@]2(C)CC[C@@]2(C)[C@@H]3C[C@@H](C)C(=O)C[C@]3(C)CC[C@]12C [Compound 3, tingenone] | Competitive (4.0 ± 0.1) | – | – |
| CC1=C(O)C(=O)C=C2C1=CC=C1[C@@]2(C)CC[C@@]2(C)[C@@H]3C[C@](C)(C(=O)O)CC[C@]3(C)CC[C@]12C [Compound 1, celastrol] | Competitive (4.2 ± 0.6) | – | – |
| CC1=CC[C@]2(C)CC[C@]3(C)C4=CC=C5C(=CC(=O)C(O)=C5C)[C@]4(C)CC[C@@]3(C)[C@@H]2C1 [Compound 4, iguesterin] | Competitive (0.8 ± 0.2) | 44.4 ± 6.2 | 10 |
| COC(=O)[C@]1(C)CC[C@]2(C)CC[C@]3(C)C4=CC=C5C(=CC(=O)C(O)=C5C)[C@]4(C)CC[C@@]3(C)[C@@H]2C1 [Compound 2, pristimerin] | Competitive (3.1 ± 0.0) | – | – |
